This is an account of results in patent US20250161285A1, “BACTERIAL BIOFILM INHIBITORS” (THE RESEARCH INSTITUTE AT NATIONWIDE CHILDREN'S HOSPITAL, priority 2022, published 2025).

Experiment [1] deals with S. Typhimurium ATCC 14028. Description: Murine model of chronic Salmonella gallbladder carriage, combination with ciprofloxacin. As to conditions: for reduction in bacterial burden in the gallbladder: 5 mg/kg/day compound + 1 mg/kg/day cipro I.P., 15 dpi. Type of experiment: in vivo, 129X1/SvJ NRAMP+/+ mice. On the procedure:
FIGS. 5A-5F provide graphs showing Enumeration of Salmonella in the gallbladder, liver, and spleen of infected mice at 15 dpi. […] Dotted lines represent the limit of detection where applicable; significant differences among the bacterial burden of treatment groups were determined via one-way ANOVA with the Tukey correction for multiple comparisons; ns non-significant, * p<0.05, ** p<0.01, *** p<0.001, **** p<0.0001.
Murine model of chronic Salmonella gallbladder carriage and evaluation of compound therapeutic efficacy in combination with ciprofloxacin. A total of 46 adult 129X1/SvJ NRAMP^+/+ mice (The Jackson Laboratory, Bar Harbour, ME) were used in this study. […] Mice were randomly assigned to treatment groups in two separate experiments. […] Treatments were administered daily via I.P. injection from days 5-15 post-infection. On day 15 post-infection, mice were euthanized and gallbladders, livers, and spleens were removed and homogenized in a volume of 1 mL sterile PBS using a TissueLyser LT bead mill (Qiagen, Valencia, CA). Tissue homogenates were serially diluted in PBS, plated onto LB agar, and incubated at 37° C. for 16h in order to quantify bacterial burden via CFU enumeration.

For experiment [2], the system named is S. Typhimurium ATCC 14028 (JSG210) biofilms. As to the kind of experiment: Biofilm dispersion assay on pre-formed biofilms (crystal violet staining). Type of experiment: cell-based, Salmonella enterica serovar Typhimurium. As to conditions: 50% dispersion of biofilms established 24 h, then 24 h with compound, crystal violet OD570; mean ± standard deviation. On the procedure:
(§1) Salmonella biofilm growth and crystal violet staining. […] For biofilm assays, individual bacterial colonies were picked and used to inoculate LB broth for overnight liquid cultures, which were grown at 37° C. with aeration using a rotating drum. […] Biofilm plates were then submerged in dH2O to wash away any remaining non-adherent bacteria and heat fixed (1h, 60° C.). Biofilms were then stained with a 33% crystal violet solution (6 mL PBS, 3.3 mL crystal violet, 333 μL methanol, 333 μL isopropanol) for 5 min. and washed twice by submerging in dH2O before releasing the bound dye with 33% glacial acetic acid. Biofilm growth was then quantified by measuring the optical density of the solubilized dye at 570 nm using a spectrophotometer (Molecular Devices, SpectraMax M5).
(§2) Biofilm Inhibition and Dispersion Assays and IC50/EC50 Determination. […] Biofilms were then grown as described above for a total of 24 h prior to CV staining. […] Biofilms were then incubated for an additional 24 h in the presence of compounds prior to CV staining. IC50/EC50 values were calculated by plotting normalized compound activity (percent biofilm formed and percent remaining, respectively) as a function of log10 compound concentration and fitting a dose response curve (log[inhibitor] vs. normalized response, variable slope).

Experiment [3] has the same test system. As to the kind of experiment: Biofilm inhibition assay (crystal violet staining). The class given is cell-based, Salmonella enterica serovar Typhimurium. As to conditions: for IC50: inhibition of S. Typhimurium biofilm formation, compound present 24 h, crystal violet OD570, mean ± standard deviation. On the procedure:
Inhibition of biofilm formation is assessed by growing bacteria in a 96-well plate in the absence (control) or presence of test compounds. After 24 hours, the wells are washed to remove planktonic bacteria, and the remaining surface attached bacteria (biofilm) are stained with crystal violet (CV). The wells are then washed again to remove excess CV, and the remaining CV is solubilized with a solution of acetic acid and then quantified by spectrophotometry at 570 nm. A dose response curve is then constructed from which an IC50 value is determined.
as §1, §2

The subject of experiment [4] is S. Typhimurium ATCC 14028. As to conditions: cited from earlier work.
Where [5] appears, read: 5 mg/kg/day 7d + 4 mg/kg/day cipro, I.P., days 5-15.
The mark [6] stands for this setting: 2 mg/kg/day cipro alone, I.P., days 5-15 post-infection.

Where two headings read alike, the source gives them in different places.

As to `CN(Cc1ccsc1)CC1CCN(CCc2ccc(-c3ccccc3)cc2)CC1` [Compound 8j], in experiment [1] (days 5-15 post-infection), the “reduction in bacterial burden in the gallbladder” value (shortened to “reduction in bacterial burden”) is given as 3.5-4 log-fold.
In the case of `CN(Cc1ccsc1)CC1CCN(CCc2ccc(Br)c(Br)c2)CC1` [Compound 7d], in experiment [1] (setting [5]), the “CFUs recovered in all organs (gallbladder, liver, spleen)” value is reported as “neared the limit of detection” and the “gallbladder bacteria versus 4 mg/kg/day cipro alone” value was “additional significant reduction”. Also, the “reduction in bacterial burden” value in experiment [1] (days 5-15 post-infection) is on record as 4.5-5 log-fold. Besides, in experiment [1] (compound with ciprofloxacin), the “reduction of bacterial burden in the gallbladder” value was 4.5-5 logs.
A word on the EC50: it is the concentration giving half of the maximal effect. What is called IC50 is the midpoint of a concentration-inhibition curve. Read a low IC50 as greater potency in that assay. In the case of `CN(Cc1ccsc1)CC1CCN(CCCc2ccccc2)CC1` [Compound 6n], the EC50 in experiment [2] was more than 12000 µM. Further, 78.1 ± 3.7 µM corresponded to half-maximal inhibition in experiment [3] (IC50).
Taken in the same sequence, the figures for `CN(Cc1ccsc1)CC1CCN(Cc2ccccc2Br)CC1` [Compound 7f] were 79 ± 3 µM and 4.9 ± 0.8 µM.
Turning to `CN(Cc1ccsc1)CC1CCN(CCc2c(F)cccc2F)CC1` [Compound 6h], the EC50 in experiment [2] is 138 ± 18 µM. Further, the IC50 in experiment [3] amounted to 6.3 ± 0.6 µM.
Taken in the same sequence, the figures for `CN(Cc1ccccc1Cl)CC1CCN(CCc2ccc(Cl)cc2Cl)CC1` [Compound 3.3c] were 14 ± 10 µM and 11.3 ± 7.3 µM.
Taken in the same sequence, the figures for `CN(Cc1ccsc1)CC1CCN(CCc2ccccc2C(F)(F)F)CC1` [Compound 7e] were 60 ± 2 µM and 12.7 ± 4.1 µM.
Taken in the same sequence, the figures for `CN(Cc1ccccc1)CC1CCN(CCc2ccccc2F)CC1` [Compound 3.1a] were more than 75 µM and 5 µM.
`CC(C)c1ccc(CCN2CCC(CN(C)Cc3ccsc3)CC2)cc1` [Compound 8h]: the EC50 in experiment [2] was 123 ± 7 µM. Also, in experiment [3], the midpoint of inhibition, the IC50, lay at 2.3 µM.
Turning to `CN(Cc1ccsc1)CC1CCN(CCc2ccccc2F)CC1` [Compound 1], the EC50 in experiment [2] amounted to 829 µM. In addition, the “reduction in the bacterial burden in the gallbladder” value in experiment [4] (compound 1 10 mg/kg/day + ciprofloxacin 1.0 mg/kg/day (Sandala et al., 2020)) is given as 3-4.5 log. For the same molecule, the “reduction of bacterial burden in the gallbladder” value in experiment [4] (compound 1 at 10 mg/kg/day, previous experiments (Sandala et al., 2020)) is reported as “several logs”. The molecule also displayed an IC50 in experiment [3] of 5.7 µM. For the same molecule, in experiment [1] (days 5-15 post-infection), the “reduction in bacterial burden” value was approximately 2 log-fold.
For `CN(Cc1ccsc1)CC1CCN(CCc2cccc(Cl)c2Cl)CC1` [Compound 7b], the “reduction in bacterial burden” value in experiment [1] (days 5-15 post-infection) was approximately 1.5 log-fold.
Regarding `CN(Cc1ccsc1)CC1CCN(CCc2ccc(Cl)cc2)CC1` [Compound 6b], the EC50 in experiment [2] is 69 ± 4 µM. The “fold improvement of IC50 versus comparator” value in experiment [3] (6a vs 4c, 6b vs 4d, 6g vs 4c and 4d, 8i vs 8b) is on record as “over four-fold”. Besides, the IC50 in experiment [3] was 3 ± 1.4 µM.
On to `CN(Cc1ccsc1)CC1CCN(Cc2cccc(Cl)c2)CC1` [Compound 7h], for which the EC50 in experiment [2] was found to be 299 ± 21 µM. Also, in experiment [3], the IC50 came out at 5.2 ± 1.3 µM.
Taken in the same sequence, the figures for `CN(Cc1ccccc1Cl)CC1CCN(CCc2ccccc2F)CC1` [Compound 3.1d] were more than 75 µM and 6.3 µM.
On to `O=C(O)c1cn(C2CC2)c2cc(N3CCNCC3)c(F)cc2c1=O` [cipro, ciprofloxacin, reference compound], for which, in experiment [1] (setting [6]), the “bacteria recovered from the liver and spleen” value was “reduce the number of bacteria recovered”; the “effect on bacterial burden within the gallbladder” value is “no statistically significant effect”. Besides, the “reduction of bacterial gallbladder burden” value in experiment [1] (4 mg/kg/day cipro alone, I.P., days 5-15 post-infection) was 3-4 logs.
As for `CN(Cc1ccsc1)CC1CCN(Cc2cc(F)cc(F)c2)CC1` [Compound 7m], in experiment [2], the EC50 was more than 12000 µM. The molecule further displayed a half-inhibitory concentration (IC50) in experiment [3] of 14.2 ± 1.7 µM.
Taken in the same sequence, the figures for `CN(Cc1ccsc1)CC1CCN(CCc2ccccc2I)CC1` [Compound 8a] were 60 ± 2 µM and 4.3 µM.
Taken in the same sequence, the figures for `CN(Cc1ccsc1)CC1CCN(Cc2ccc(Br)c(Br)c2)CC1` [Compound 7s] were 32 ± 1 µM and 11.9 ± 1.7 µM.
Taken in the same sequence, the figures for `CN(Cc1ccsc1)CC1CCN(CCc2ccc(I)cc2)CC1` [Compound 8c] were 89 ± 10 µM and 2.6 µM.
Consider `CN(Cc1ccsc1)CC1CCN(CCc2ccc(Cl)c(Cl)c2)CC1` [Compound 7a], for which the EC50 in experiment [2] was 45 ± 2 µM. The same molecule gave an IC50 in experiment [3] of 1.4 µM.
Taken in the same sequence, the figures for `CN(Cc1ccccc1)CC1CCN(CCc2ccc(Cl)cc2Cl)CC1` [Compound 3.3a] were 11 ± 7 µM and 4.3 ± 2.1 µM.
Taken in the same sequence, the figures for `CN(Cc1ccsc1)CC1CCN(Cc2ccc(Br)cc2)CC1` [Compound 7l] were 127 ± 13 µM and 8.5 ± 1.8 µM.
